Test results: PMC2606016 (The Journal of Biological Chemistry, 2008)

Columns and labels:
HoNTT = biological target: T1, HoNTT (Holospora obtusa, UniProt W6TTK3); details: 30 °C; labelled compound
T1 sequence (W6TTK3 1-514): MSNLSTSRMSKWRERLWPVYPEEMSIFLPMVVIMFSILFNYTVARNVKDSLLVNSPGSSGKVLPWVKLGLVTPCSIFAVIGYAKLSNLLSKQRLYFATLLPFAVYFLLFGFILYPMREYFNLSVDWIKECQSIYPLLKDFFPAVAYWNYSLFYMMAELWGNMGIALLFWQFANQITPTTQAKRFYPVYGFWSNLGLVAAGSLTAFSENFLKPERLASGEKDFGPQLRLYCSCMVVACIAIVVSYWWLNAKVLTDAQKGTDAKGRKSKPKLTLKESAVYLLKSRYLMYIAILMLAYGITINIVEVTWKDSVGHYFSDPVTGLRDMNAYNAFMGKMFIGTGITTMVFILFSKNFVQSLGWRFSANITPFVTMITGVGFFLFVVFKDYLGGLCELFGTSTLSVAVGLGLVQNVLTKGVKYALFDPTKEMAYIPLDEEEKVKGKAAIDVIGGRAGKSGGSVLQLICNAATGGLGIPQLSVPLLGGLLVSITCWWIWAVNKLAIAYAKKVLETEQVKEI

AtNTT1 = biological target: T2, AtNTT1 (Arabidopsis thaliana, UniProt Q39002); details: 30 °C; labelled compound
T2 sequence (Q39002 87-624): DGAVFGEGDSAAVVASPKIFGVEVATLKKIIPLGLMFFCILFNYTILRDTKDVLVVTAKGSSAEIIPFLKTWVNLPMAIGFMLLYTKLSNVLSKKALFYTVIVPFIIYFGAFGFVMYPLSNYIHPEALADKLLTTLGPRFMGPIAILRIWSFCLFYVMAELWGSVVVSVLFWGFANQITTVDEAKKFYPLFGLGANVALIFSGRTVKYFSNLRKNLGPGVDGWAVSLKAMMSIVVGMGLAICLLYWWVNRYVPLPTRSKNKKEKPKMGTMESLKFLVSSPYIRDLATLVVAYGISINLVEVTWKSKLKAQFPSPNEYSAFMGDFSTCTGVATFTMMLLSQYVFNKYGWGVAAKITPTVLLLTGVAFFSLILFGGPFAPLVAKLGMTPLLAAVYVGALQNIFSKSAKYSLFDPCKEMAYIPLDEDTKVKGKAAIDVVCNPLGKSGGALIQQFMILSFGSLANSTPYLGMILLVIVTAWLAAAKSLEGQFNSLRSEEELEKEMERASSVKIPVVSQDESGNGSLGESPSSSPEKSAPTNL

Nc1ncnc2c1ncn2[C@@H]1O[C@H](COP(=O)(O)OP(=O)(O)OP(=O)(O)O)[C@@H](O)[C@H]1O [ATP]
uptake of labelled substrate into proteoliposomes (HoNTT): All recombinant carriers mediated ATP and ADP transport
uptake of labelled substrate into proteoliposomes (AtNTT1): All recombinant carriers mediated ATP and ADP transport
